The results in this text go back to patent US11859209B2, “Method for inducing osteogenic differentiation” (KYOTO UNIVERSITY, priority 2017, dated 2024).

Structures are written as SMILES.

One data set deals with iPS cells. Description: Amount of calcium salt deposition (OCPC), one-procedure osteogenic differentiation method. The class given is cell-based, human. How it is done: On-feeder iPS cells were cultured under feeder-free conditions on Matrigel coating in mTeSR (product name, Stemcell Technologies) for three days (D-3 to D0). The cells were seeded on gelatin coating and cultured in a mixed culture medium of osteogenic induction medium (OI medium) and mTeSR (mixing ratio=4:1) supplemented with a ROCK inhibitor (ROCKi) and retinoic acid (RA) for the first two days (D0 to D2). The cells were then cultured in osteogenic induction medium supplemented with retinoic acid (RA) until D10. As a control, cells were cultured in the same culture medium without retinoic acid.
iPS cells were cultured under feeder-free conditions on laminin coating in StemFit AK03N (product name, Ajinomoto Healthy Supply), and then cultured in a mixed culture medium of osteogenic induction medium (OI medium) and mTeSR (mixing ratio=4:1) supplemented with a ROCK inhibitor (ROCKi) and retinoic acid (RA) for the first two days (D0 to D2). The cells were then cultured in osteogenic induction medium supplemented with retinoic acid (RA) until D10. As a control, cells were cultured in the same culture medium without retinoic acid.
(§1) For the evaluation of calcified nodule-forming capacity, the cultured cells were fixed in ethyl alcohol, reacted with alizarin red staining solution for 10 minutes and washed. The positive nodules were evaluated qualitatively. Calcium salt deposition was determined quantitatively by measuring the intensity of color produced by o-cresolphthalein complexon (OCPC) solution.
Next, induction of osteogenic differentiation via BMP and WNT was investigated using inhibitors against them. Cells were cultured in culture medium supplemented with a BMP inhibitor (LDN) or a WNT inhibitor (IWR1) for 10 days, and the amount of calcium salt deposition was determined. […] The results confirmed that both of BMP and WNT signals are implicated in the induction of osteogenic differentiation by retinoic acid.
Cells were cultured in culture medium supplemented with BMS 493, which is an antagonist against all the retinoic acid receptors (pan-RAR antagonist) for 10 days, and the amount of calcium salt deposition was determined.
Next, the effects of siRNAs on each RAR were analyzed. […] However, addition of siRNAs against RARα (α#1 and α#2) and siRNAs against RARβ (β#1 and β#2) reduced the bone-forming capacity. […] In the figure, CTL indicates cell culture supplemented with a control siRNA, and (−) indicates cell culture with no siRNA.
Cells were subjected to the one-procedure osteogenic differentiation method in osteogenic induction medium supplemented with a retinoic acid receptor (RAR) agonist instead of retinoic acid (RA). The amount of calcium salt deposition was determined on day 10. As with addition of retinoic acid, the amount of calcium salt deposition was increased by the addition of the RARα agonists Am 580 (200 nM) and Am 80 (1 μM), or the RARβ agonists CD2314 (3 μM) and AC 55649 (3 μM).

The test system of data set [1] is iPS cells derived from osteogenesis imperfecta patients having abnormalities of the COL1A1 gene. Description: Calcium salt deposition of cells induced from OI patient-derived iPS cells. The class given is cell-based, human. The settings on record: 100 nM added from day 2, assessed on day 10; FIG. 20. The protocol:
as §1
(§2) iPS cells (OI#1-1 and OI#2-1) were established from two OI patients (OI#1 and OI#2) having an abnormal COL1A1 gene. The respective mutations in the COL1A1 gene in the iPS cells were restored by genome editing technology to generate rescued iPS cells (resOI#1-1 and resOI#2-1). These iPS cells and standard iPS cells (WT1, 414C2; WT2, 409B2) were subjected to induction of osteogenic differentiation by the one-procedure osteogenic differentiation method. On day 10 of induction, the cells were compared in terms of the capacity of calcified nodule formation, the amount of calcium salt deposition, the expression of an ER stress-related gene, and the capacity of type I collagen secretion.
(§3) Accordingly, the inventors investigated whether the one-procedure osteogenic differentiation method can recapitulate the effects of an mTOR inhibitor. Rapamycin (10 nM) or everolimus (100 nM) was added to the culture medium from day 2 of the induction, and differentiation capacity was assessed on day 10.

Data set [2] has the same test system. Briefly: Type I collagen secretion by immunostaining with anti-type I collagen antibody, OI patient-derived iPS cells. It counts as cell-based, human. The settings on record: 100 nM added from day 2, assessed on day 10; FIG. 22.
Source text: as §2, §3

The test system is the same in data set [3]. Briefly: Alizarin red staining of cells induced from OI patient-derived iPS cells. The class given is cell-based, human. To be noted: 100 nM added from day 2, assessed on day 10; FIG. 19. How it is done: as §1, §2, §3
For data set [4] the test system is unchanged. Description: Expression of ER stress-related gene BiP in cells induced from OI patient-derived iPS cells. The class given is cell-based, human. To be noted: 100 nM added from day 2, assessed on day 10; FIG. 21.
Source text: as §2, §3

Data set [5] deals with bone defects of 4 mm in diameter created in the cranium of NOD-SCID mice. Briefly: Transplantation of day 7 induced cells into cranial bone defects, micro-CT and histology after six weeks. To be noted: transplanted cells cultured in osteogenic induction medium supplemented with retinoic acid, FIG. 8B.
The mark [6] stands for this setting: day 10, agonist instead of retinoic acid, 1 μM, FIG. 14.
Setting [7] is: day 10, agonist instead of retinoic acid, 3 μM, FIG. 14.

Take `O=C(Nc1cccc2cccnc12)c1ccc(N2C(=O)[C@@H]3[C@H](C2=O)[C@@H]2C=C[C@H]3C2)cc1` [IWR1]: the “amount of calcium salt deposition” value with iPS cells (culture medium supplemented with BMP or WNT inhibitor for 10 days, induction by retinoic acid, FIG. 11) was “increase in calcium salt deposition by retinoic acid was inhibited”.

`CC1(C)CCC(C)(C)c2cc(Cn3cccn3)c(/C=C/c3ccc(C(=O)O)cc3)cc21` [R667]: in the data set with iPS cells (day 10, agonist instead of retinoic acid, 100 nM, FIG. 14), the “amount of calcium salt deposition” value was “such effects were not observed”.

Regarding `CO[C@H]1C[C@@H]2CC[C@@H](C)[C@@](O)(O2)C(=O)C(=O)N2CCCC[C@H]2C(=O)O[C@H]([C@H](C)C[C@@H]2CC[C@@H](OCCO)[C@H](OC)C2)CC(=O)[C@H](C)/C=C(\C)[C@@H](O)[C@@H](OC)C(=O)[C@H](C)C[C@H](C)/C=C/C=C/C=C/1C` [everolimus], the “amount of calcium salt deposition” value in data set [1] is “improves”. The “Type I collagen secretion and distribution” value in data set [2] is reported as “remarkably improved”. The “capacity of forming alizarin red-positive calcified nodules” value in data set [3] is reported as “improves”. In data set [4], the “ER stress (expression of the ER stress-related gene BiP)” value is reported as “suggested reduction of ER stress”. `CC1=C(/C=C/C(C)=C/C=C/C(C)=C/C(=O)O)C(C)(C)CCC1` [retinoic acid]: in data set [5], the tumor formation result is listed as “no tumor formation was observed”. In the case of `O=C(O)c1ccc2cc(-c3ccc(O)c(C45CC6CC(CC(C6)C4)C5)c3)ccc2c1` [CD437], in the data set on iPS cells (setting [6]), the “amount of calcium salt deposition” value is “such effects were not observed”.

As for `CC1(C)CCC(C)(C)c2cc3cc(-c4cc(C(=O)O)cs4)ccc3cc21` [CD2314], the “amount of calcium salt deposition” value in the data set on iPS cells (setting [7]) was “increased”. Same read-out and setting: for `CCCCCCCCc1ccc(-c2ccc(C(=O)O)cc2)cc1` [AC 55649] the value was “increased”.

With `CC1(C)CCC(C)(C)c2cc(NC(=O)c3ccc(C(=O)O)cc3)ccc21` [Am 80], in the data set with iPS cells (setting [6]), the “amount of calcium salt deposition” value was “increased”. As for `CC1(C)CCC(C)(C)c2cc(C(=O)Nc3ccc(C(=O)O)cc3)ccc21` [Am 580], the “amount of calcium salt deposition” value in the data set with iPS cells (day 10, agonist instead of retinoic acid, 200 nM, FIG. 14) was “increased”. Take `CC1(C)CC=C(C#Cc2ccccc2)c2cc(/C=C/c3ccc(C(=O)O)cc3)ccc21` [BMS 493]: in the data set with iPS cells (culture medium supplemented with pan-RAR antagonist for 10 days, induction by RA, FIG. 12), the “amount of calcium salt deposition” value is “The effects of RA were completely eliminated”.
